This is an account of results in ChEMBL document CHEMBL4725308, “MK-5204: An orally active β-1,3-glucan synthesis inhibitor” (Bioorg Med Chem Lett, 2020).

For data set [1], the system named is Aspergillus fumigatus. As to the kind of experiment: Antifungal activity against Aspergillus fumigatus MF5668 assessed as fungal growth inhibition measured after 24 hrs by liquid microdilution method. In kind it is functional. The settings on record: read-out: MEC.
A short description of data set [2]: Oral bioavailability in mouse. Format: ADME, organism-based. To be noted: in vivo.
Data set [3] deals with Candida albicans. As to the kind of experiment: Antifungal activity against Candida albicans MY1055 infected in DBA mouse model assessed as log change in colony forming units in kidney at 12.5 mg/kg, po bid for 2 days and measured after 4 days by TOKA. Format: functional. The settings on record: time 2 day.
Data set [4] concerns Candida albicans. As to the kind of experiment: Antifungal activity against Candida albicans MY1055 infected in DBA/2 mouse model assessed as log change in colony forming units in kidney at 6.5 mg/kg, po bid for 2 days and measured after 4 days by TOKA. In kind it is functional. To be noted: time 2 day.
The test system of data set [5] is Candida albicans. As to the kind of experiment: Antifungal activity against Candida albicans MY1055 assessed as fungal growth inhibition measured after 24 hrs by liquid microdilution method. In kind it is functional.
Data set [6] in a line: Inhibition of beta-1,3-glucan synthase in Candida albicans MY1055 microsomal membrane using UDP-[3H]-glucose as substrate incubated for 2 hrs in presence of UTP by radioactivity-based assay. In kind it is cell membranes.
Data set [7] relates to Candida albicans. Briefly: Antifungal activity against Candida albicans MY1055 infected in DBA/2 mouse model assessed as log change in colony forming units in kidney at 25 mg/kg, po bid for 2 days and measured after 4 days by TOKA. The settings on record: time 2 day. In kind it is functional.
The subject of data set [8] is Candida albicans. As to the kind of experiment: Antifungal activity against Candida albicans MY1055 assessed as fungal growth inhibition measured after 24 hrs in presence of mouse serum by liquid microdilution method. In kind it is functional.
Data set [9] concerns Aspergillus fumigatus. As to the kind of experiment: Antifungal activity against Aspergillus fumigatus MF5668 infected in DBA/2N mouse assessed as mouse survival at 1.56 mg/kg, ip bid administered for 7 days starting from 30 mins post infection and measured up to 21 days relative to control. Format: functional. The settings on record: 168 h, time 7 day.
The test system of data set [10] is Aspergillus fumigatus. Briefly: Antifungal activity against Aspergillus fumigatus MF5668 infected in DBA/2N mouse assessed as mean survival days at 1.56 mg/kg, ip bid administered for 7 days starting from 30 mins post infection and measured up to 21 days relative to control. The settings on record: time 7 day. Format: functional.
A short description of data set [11]: Oral bioavailability in rhesus monkey. The settings on record: in vivo. Format: ADME, organism-based, Macaca mulatta.
Data set [12] has as its system Candida albicans. Briefly: Antifungal activity against Candida albicans MY1055 infected in DBA/2N mouse model assessed as mouse survival at 12.5 mg/kg, po bid for 7 days and measured post-last dose by TOKA relative to control. In kind it is functional. To be noted: 168 h, time 7 day.
The test system of a further data set is Nakaseomyces glabratus. Briefly: Antifungal activity against Candida glabrata MY1381 assessed as fungal growth inhibition. Format: functional.
The nature of data set [13]: Clearance in dog. To be noted: in vivo. Format: ADME, Canis lupus familiaris.
Data set [14] relates to Candida albicans. Briefly: Antifungal activity against Candida albicans MY1055 infected in DBA/2N mouse model administered for 7 days by TOKA. In kind it is functional. The settings on record: MY1055, 168 h, time 7 day.
Data set [15] in a line: Clearance in rat. Format: ADME. The settings on record: in vivo.
Data set [16] can be described thus: Half lie in mouse. In kind it is ADME, organism-based. To be noted: in vivo.
Data set [17] deals with Candida albicans. Briefly: Antifungal activity against Candida albicans MY1055 infected in DBA/2N mouse model assessed as mouse survival at 25 mg/kg, po bid for 7 days and measured post-last dose by TOKA relative to control. To be noted: 168 h, time 7 day. Format: functional.
For data set [18], the system named is Candida albicans. As to the kind of experiment: Antifungal activity against Candida albicans MY1055 infected in DBA/2N mouse model assessed as mouse survival at 12.5 mg/kg, ip bid for 7 days and measured post-last dose by TOKA relative to control. To be noted: 168 h, time 7 day. In kind it is functional.
A short description of data set [19]: Half life in dog. Format: ADME, Canis lupus familiaris. The settings on record: in vivo.
Data set [20] is described as follows: Clearance in mouse. Format: ADME, organism-based. The settings on record: in vivo.
In data set [21] the test system is Aspergillus fumigatus. Briefly: Antifungal activity against Aspergillus fumigatus MF5668 infected in DBA/2N mouse assessed as mean survival days at 3.125 mg/kg, ip bid administered for 7 days starting from 30 mins post infection and measured up to 21 days relative to control. Format: functional. To be noted: time 7 day.
The nature of data set [22]: Oral bioavailability in dog. In kind it is ADME, organism-based, Canis lupus familiaris. The settings on record: in vivo.
Data set [23] in a line: Clearance in rhesus monkey. In kind it is ADME, Macaca mulatta. The settings on record: in vivo.
Data set [24] concerns Aspergillus fumigatus. As to the kind of experiment: Antifungal activity against Aspergillus fumigatus MF5668 infected in DBA/2N mouse assessed as mean survival days at 6.25 mg/kg, ip bid administered for 7 days starting from 30 mins post infection and measured up to 21 days relative to control. The settings on record: time 7 day. Format: functional.
Data set [25] can be described thus: Oral bioavailability in rat. In kind it is ADME, organism-based. To be noted: in vivo.
The next data set relates to Candida tropicalis. As to the kind of experiment: Antifungal activity against Candida tropicalis MY1012 assessed as fungal growth inhibition. Format: functional.
Data set [26] is described as follows: Half life in rat. To be noted: in vivo. Format: ADME.
In data set [27] the test system is Aspergillus fumigatus. Briefly: Antifungal activity against Aspergillus fumigatus MF5668 infected in DBA/2N mouse assessed as mean survival days at 12.5 mg/kg, ip bid administered for 7 days starting from 30 mins post infection and measured up to 21 days relative to control. Format: functional. The settings on record: time 7 day.
Data set [28] has as its system Candida albicans. Briefly: Antifungal activity against Candida albicans MY1055 infected in DBA/2N mouse model assessed as mouse survival at 6.5 mg/kg, po bid for 7 days and measured post-last dose by TOKA relative to control. In kind it is functional. To be noted: 168 h, time 7 day.
Data set [29] is described as follows: Half life in rhesus monkey. Format: ADME, Macaca mulatta. To be noted: in vivo.
The test system of another data set is Clavispora lusitaniae. Briefly: Antifungal activity against Clavispora lusitaniae MY1396 assessed as fungal growth inhibition. Format: functional.
In data set [30] the test system is Aspergillus fumigatus. Briefly: Antifungal activity against Aspergillus fumigatus MF5668 infected in DBA/2N mouse assessed as mouse survival at 6.25 mg/kg, ip bid administered for 7 days starting from 30 mins post infection and measured up to 21 days relative to control. The settings on record: 168 h, time 7 day. Format: functional.
The next data set concerns Pichia kudriavzevii. Briefly: Antifungal activity against Candida krusei ATCC 6258 assessed as fungal growth inhibition. In kind it is functional.
For data set [31], the system named is Aspergillus fumigatus. As to the kind of experiment: Antifungal activity against Aspergillus fumigatus MF5668 infected in DBA/2N mouse assessed as mouse survival at 3.125 mg/kg, ip bid administered for 7 days starting from 30 mins post infection and measured up to 21 days relative to control. Format: functional. To be noted: 168 h, time 7 day.
Another data set relates to Candida parapsilosis. As to the kind of experiment: Antifungal activity against Candida parapsilosis ATCC 22019 assessed as fungal growth inhibition. In kind it is functional. The settings on record: Lodderomyces parapsilosis.
Data set [32] deals with Aspergillus fumigatus. As to the kind of experiment: Antifungal activity against Aspergillus fumigatus MF5668 infected in DBA/2N mouse assessed as mouse survival at 12.5 mg/kg, ip bid administered for 7 days starting from 30 mins post infection and measured up to 21 days relative to control. The settings on record: 168 h, time 7 day. In kind it is functional.

≈ marks a conversion by molar mass, not a printed value.

Consider `CC(C)[C@@H](C)[C@@]1(C)CC[C@]2(C)[C@H]3CC[C@@H]4[C@@]5(COC[C@]4(C)[C@@H](OC[C@](C)(N)C(C)C)[C@H](n4ncnc4C(=O)NC4CC4)C5)C3=CC[C@@]2(C)[C@@H]1C(=O)O`, for which the minimal effective concentration with Aspergillus fumigatus [1] was below 0.03 µg/mL. This compound also had a bioavailability in [2] of 30%. In addition, the Activity was -0.9 log CFU with Candida albicans [3], -0.8 log CFU with Candida albicans [4] and -2.1 log CFU in the data set on Candida albicans [7]. Moreover, the values for the MIC in the data set with Candida albicans [5] and with Candida albicans [8] were 0.25 µg/mL (≈ 0.346 µM) and 16 µg/mL, respectively. Further, in [6], the IC50 worked out at 0.005 µg/mL.
As for `CC(C)[C@@H](C)[C@@]1(C)CC[C@]2(C)[C@H]3CC[C@@H]4[C@@]5(COC[C@]4(C)[C@@H](OC[C@H](N)C(C)(C)C)[C@H](n4ncnc4C(N)=O)C5)C3=CC[C@@]2(C)[C@@H]1C(=O)O`, the minimal effective concentration in the data set on Aspergillus fumigatus [1] is below 0.03 µg/mL. In [2], the bioavailability stood at 10%. The Activity in the data set with Candida albicans [3] is listed as -1.7 log CFU; in the data set with Candida albicans [4], -1.9 log CFU; with Candida albicans [7], -2.6 log CFU. The MIC in the data set with Candida albicans [5] turned out to be 0.25 µg/mL (≈ 0.367 µM); in the data set on Candida albicans [8], 8 µg/mL. Moreover, the IC50 in data set [6] came out at 0.008 µg/mL.
Regarding `CCC(N)(CC)CO[C@H]1[C@H](n2ncnc2C(N)=O)C[C@@]23COC[C@@]1(C)[C@@H]2CC[C@H]1C3=CC[C@@]2(C)[C@H](C(=O)O)[C@@](C)([C@H](C)C(C)C)CC[C@]12C`, the minimal effective concentration with Aspergillus fumigatus [1] is below 0.03 µg/mL. Besides, the bioavailability in [2] is 3%. The Activity with Candida albicans [3] was -0.6 log CFU; with Candida albicans [4] it was -0.2 log CFU; with Candida albicans [7] it was -1.9 log CFU. Further, the MIC in the data set with Candida albicans [5] came out at 0.125 µg/mL (≈ 0.183 µM); in the data set with Candida albicans [8] it was 16 µg/mL. Further, the IC50 in [6] turned out to be 0.007 µg/mL.
On to `CC(C)[C@@H](C)[C@@]1(C)CC[C@]2(C)[C@H]3CC[C@@H]4[C@@]5(COC[C@]4(C)[C@@H](OC[C@](C)(N)C(C)(C)C)[C@H](n4ncnc4C(N)=O)C5)C3=CC[C@@]2(C)[C@@H]1C(=O)O`, for which the survival at 1.56 mg/kg with Aspergillus fumigatus [9] stood at 0%. Moreover, the MSD in the data set on Aspergillus fumigatus [10] stood at 6.5 days; in the data set on Aspergillus fumigatus [21] it was 7.3 days; with Aspergillus fumigatus [24] it was 12.5 days; with Aspergillus fumigatus [27] it was 14.4 days. Besides, the bioavailability in [11] turned out to be 12%; in data set [2] it was 12%; in data set [22], 35%; in [25] it was 17%. Moreover, the survival at 12.5 mg/kg in the data set on Candida albicans [12] stood at 100%; in the data set with Candida albicans [18] it was 100%; in the data set on Aspergillus fumigatus [32], 60%. Besides, the MIC is 0.125 µg/mL (≈ 0.18 µM) with Nakaseomyces glabratus; 0.5 µg/mL (≈ 0.718 µM) in the data set with Candida tropicalis; 0.06 µg/mL (≈ 0.0862 µM) with Candida albicans [5]; 2 µg/mL in the data set with Candida albicans [8]; 0.125 µg/mL (≈ 0.18 µM) in the data set on Clavispora lusitaniae; 1 µg/mL (≈ 1.44 µM) with Pichia kudriavzevii. Further, the MIC in the data set with Candida parapsilosis stood at 0.06 µg/mL (≈ 0.0862 µM). Also, the clearance in data set [13] came out at 2 mL/min/kg; in data set [15], 6 mL/min/kg; in data set [20], 11 mL/min/kg; in data set [23], 4 mL/min/kg. Besides, in the data set with Candida albicans [14], the ED99 was determined as 6.4 mg/kg. Besides, the minimal effective concentration in the data set with Aspergillus fumigatus [1] was below 0.03 µg/mL. Also, the half-life in data set [16] is 5.1 h; in [19], 12.3 h; in [26], 5.5 h; in [29], 8.5 h. Further, the survival at 25 mg/kg with Candida albicans [17] came out at 80%. Also, the values for the Activity with Candida albicans [3], with Candida albicans [4] and in the data set on Candida albicans [7] were -2.5 log CFU, -1.5 log CFU and -2.2 log CFU, respectively. Also, in data set [6], the IC50 was 0.003 µg/mL. The survival at 6.5 mg/kg with Candida albicans [28] came out at 100%. In the data set on Aspergillus fumigatus [30], the survival at 6.25 mg/kg was 40%. In addition, the survival at 3.125 mg/kg with Aspergillus fumigatus [31] turned out to be 10%.
Turning to `CN[C@@](C)(CO[C@H]1[C@H](n2ncnc2C(N)=O)C[C@@]23COC[C@@]1(C)[C@@H]2CC[C@H]1C3=CC[C@@]2(C)[C@H](C(=O)O)[C@@](C)([C@H](C)C(C)C)CC[C@]12C)C(C)C`, in the data set on Aspergillus fumigatus [1], the minimal effective concentration was below 0.03 µg/mL. In data set [2], this compound had a bioavailability of 5%. Also, the Activity is reported as -0.5 log CFU in the data set on Candida albicans [3], -0.4 log CFU with Candida albicans [4] and -1.2 log CFU in the data set with Candida albicans [7]. Further, the results for the MIC with Candida albicans [5] and in the data set on Candida albicans [8] were 0.25 µg/mL (≈ 0.359 µM) and 8 µg/mL, respectively. The IC50 in [6] was 0.005 µg/mL.
